Assays:
PRMT5 [1] = target: T1, PRMT5 (Homo sapiens, UniProt O14744); test: PRMT5 IC50 assay in the presence of SAM as cofactor; assay type: biochemical
T1 construct: purchased Viva (custom protein)
How it was run: (§1)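 Ki conversion: SAM arm, Ki=IC50/1.5; MTA arm, Ki=IC50/13.5. No-cofactor arm reported as IC50 only. Selectivity expressed as Ki(SAM)/Ki(MTA).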

PRMT5 [2] = target: T1, PRMT5; test: PRMT5 IC50 assay with no cofactor; assay type: biochemical
How it was run: as §1

PRMT5 [3] = target: T1, PRMT5; test: PRMT5 IC50 assay in the presence of MTA as cofactor; assay type: biochemical; details: for IC50: PRMT5, MTA as cofactor
How it was run: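 Three cofactor conditions tested for PRMT5 inhibition: none, MTA and SAM, each giving an IC50. For conversion to Ki, the MTA-condition IC50 is divided by 13.5 and the SAM-condition IC50 by 1.5, and the two Ki values are expressed as a SAM/MTA ratio.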

HAP1 MTAP-intact = test: SDMA in-cell western assay, HAP1 MTAP-intact cell line; assay type: cell-based; details: Homo sapiens
How it was run: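 HAP1 isogenic pair: endogenous MTAP vs MTAP-null. Readout SDMA by in-cell western; IC50 per line. Ratio ≥3 fold = MTAP-selective.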

HAP1 MTAP-deleted = test: SDMA in-cell western assay, HAP1 MTAP-deleted cell line; assay type: cell-based; details: for IC50: Homo sapiens, HAP1 MTAP-deleted cell line; for MTAP Intact/Deleted Ratio: IC50 ratio HAP1 MTAP-intact / HAP1 MTAP-deleted
How it was run: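 IC50 from SDMA in-cell western; HAP1 line lacking MTAP (null), paired isogenically with MTAP-intact HAP1 expressing endogenous MTAP.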

[4] = ratio between Ki in the presence of SAM and Ki in the presence of MTA
[5] = ratio between the Ki in the presence of SAM and the Ki in the presence of MTA

T1 sequence (O14744 whole entry): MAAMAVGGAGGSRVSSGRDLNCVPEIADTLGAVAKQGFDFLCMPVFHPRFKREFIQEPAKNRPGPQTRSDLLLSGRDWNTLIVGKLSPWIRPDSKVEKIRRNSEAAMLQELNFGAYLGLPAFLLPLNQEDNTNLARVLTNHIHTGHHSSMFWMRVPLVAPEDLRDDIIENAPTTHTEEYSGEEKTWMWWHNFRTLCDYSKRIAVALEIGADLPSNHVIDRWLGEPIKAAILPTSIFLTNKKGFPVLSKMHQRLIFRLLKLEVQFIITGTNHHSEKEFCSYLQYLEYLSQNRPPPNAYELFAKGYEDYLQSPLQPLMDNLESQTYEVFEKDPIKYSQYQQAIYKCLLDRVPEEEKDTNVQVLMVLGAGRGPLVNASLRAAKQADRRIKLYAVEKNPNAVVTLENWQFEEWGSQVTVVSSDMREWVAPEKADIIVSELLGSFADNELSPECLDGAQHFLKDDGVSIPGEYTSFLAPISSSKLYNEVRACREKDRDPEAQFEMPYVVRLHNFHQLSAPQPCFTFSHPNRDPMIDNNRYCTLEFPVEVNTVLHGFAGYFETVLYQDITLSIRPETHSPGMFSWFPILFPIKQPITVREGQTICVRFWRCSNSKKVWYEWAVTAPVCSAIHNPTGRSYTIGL
T1 sequence (Q9BQA1 whole entry partner): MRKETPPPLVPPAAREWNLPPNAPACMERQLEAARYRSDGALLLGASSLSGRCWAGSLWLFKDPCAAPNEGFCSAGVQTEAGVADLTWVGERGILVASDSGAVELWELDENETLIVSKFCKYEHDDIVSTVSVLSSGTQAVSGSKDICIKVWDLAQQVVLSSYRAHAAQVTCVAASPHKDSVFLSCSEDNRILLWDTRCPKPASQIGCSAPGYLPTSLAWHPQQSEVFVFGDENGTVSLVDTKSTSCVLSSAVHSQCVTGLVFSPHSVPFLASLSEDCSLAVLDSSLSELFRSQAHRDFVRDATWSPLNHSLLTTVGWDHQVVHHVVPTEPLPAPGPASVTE

IC50 (PRMT5 [1]) | IC50 (PRMT5 [2]; read-out: No Co-factor IC50) | IC50 (PRMT5 [3]) | IC50 (HAP1 MTAP-intact) | IC50 (HAP1 MTAP-deleted) | IC50 (PRMT5 [2]) | SMILES | SAM/MTA Ratio (PRMT5 [3]; [4]) | MTAP Intact/Deleted Ratio (HAP1 MTAP-deleted) | SAM/MTA Ratio (PRMT5 [3]; [5])
500 to 5000 nM | ≥ 5000 nM | 50 to 500 nM | ≥ 10000 nM | ≥ 10000 nM |  | Cc1ncoc1COc1ccc2c(c1Br)CCN(C[C@@H](O)CNC(=O)c1ccnc(NC3CCCCC3)c1)C2 [Compound 346, (S)—N-(3-(5-bromo-6-((4-methyloxazol-5-yl)methoxy)-3N-dihydroisoquinolin-2(1H)-yl)-2-hydroxypropyl)-2-(cyclohexylamino)isonicotinamide] | A (a Ki ratio greater than or equal to 10 fold between the Ki in the presence of SAM and the Ki in the presence of MTA) | C* (an IC50 ratio of less than 3 fold between the IC50 in the HAP1 MTAP-intact cell line and the HAP1 MTAP-deleted cell line) | 
50 to 500 nM | 500 to 5000 nM | 50 to 500 nM | 1000 to 10000 nM | < 1000 nM |  | O=C(NC[C@H](O)CN1CCc2cc(OCc3cnco3)ccc2C1)c1cc(NC2COC2)nc(N2CCCCC2)n1 [Compound 325, (S)—N-(2-hydroxy-3-(6-(oxazol-5-ylmethoxy)-3,4-dihydroisoquinolin-2(1H)-yl)propyl)-6-(oxetan-3-ylamino)-2-(piperidin-1-yl)pyrimidine-4-carboxamide] | A (a Ki ratio greater than or equal to 10 fold between the Ki in the presence of SAM and the Ki in the presence of MTA) | C* (an IC50 ratio of less than 3 fold between the IC50 in the HAP1 MTAP-intact cell line and the HAP1 MTAP-deleted cell line) | 
500 to 5000 nM | ≥ 5000 nM | 500 to 5000 nM | ≥ 10000 nM | ≥ 10000 nM |  | CC(=O)N1CCC(Nc2cc(C(=O)NC[C@H](O)CN3CCc4cc(OCc5cnnn5C)ccc4C3)ncn2)CC1 [Compound 250, (S)-6-((1-acetylpiperidin-4-yl)amino)-N-(2-hydroxy-3-(6-((1-methyl-1H-1,2,3-triazol-5-yl)methoxy)-3,4-dihydroisoquinolin-2(1H)-yl)propyl)pyrimidine-4-carboxamide] | A (a Ki ratio greater than or equal to 10 fold between the Ki in the presence of SAM and the Ki in the presence of MTA) | C* (an IC50 ratio of less than 3 fold between the IC50 in the HAP1 MTAP-intact cell line and the HAP1 MTAP-deleted cell line) | 
50 to 500 nM |  | 50 to 500 nM | 1000 to 10000 nM | < 1000 nM | 500 to 5000 nM | CC(C)C(=O)N1CCC(Nc2cc(C(=O)NC[C@H](O)CN3CCc4cc(OCc5cnco5)ccc4C3)ccn2)CC1 [Compound 458, N-[(2S)-2-hydroxy-3-[6-(oxazol-5-ylmethoxy)-3,4-dihydro-1H-isoquinolin-2-yl]propyl]-2-[[1-(2-methylpropanoyl)-4-piperidyl]amino]pyridine-4-carboxamide] |  | C* (an IC50 ratio of less than 3 fold between the IC50 in the HAP1 MTAP-intact cell line and the HAP1 MTAP-deleted cell line) | A (a Ki ratio greater than or equal to 10 fold between the Ki in the presence of SAM and the Ki in the presence of MTA)
50 to 500 nM | 500 to 5000 nM | 50 to 500 nM | ≥ 10000 nM | 1000 to 10000 nM |  | COCCN(C)c1nc(NC2COC2)cc(C(=O)NC[C@H](O)CN2CCc3c(ccc(OCc4cnco4)c3Cl)C2)n1 [Compound 314] | A (a Ki ratio greater than or equal to 10 fold between the Ki in the presence of SAM and the Ki in the presence of MTA) | C* (an IC50 ratio of less than 3 fold between the IC50 in the HAP1 MTAP-intact cell line and the HAP1 MTAP-deleted cell line) | 
500 to 5000 nM | ≥ 5000 nM | 500 to 5000 nM | ≥ 10000 nM | ≥ 10000 nM |  | O=C(NC[C@H](O)CN1CCc2c(ccc(OCc3cnco3)c2Cl)C1)c1cc(NC2CCCC2)ncn1 [Compound 336, (S)—N-(3-(5-chloro-6-(oxazol-5-ylmethoxy)-3,4-dihydroisoquinolin-2(1H)-yl)-2-hydroxypropyl)-6-(cyclopentylamino)pyrimidine-4-carboxamide] | A (a Ki ratio greater than or equal to 10 fold between the Ki in the presence of SAM and the Ki in the presence of MTA) | C* (an IC50 ratio of less than 3 fold between the IC50 in the HAP1 MTAP-intact cell line and the HAP1 MTAP-deleted cell line) | 
50 to 500 nM |  | 50 to 500 nM | < 1000 nM | < 1000 nM | 500 to 5000 nM | CC(=O)N1CCN(c2cc(C(=O)NC[C@H](O)CN3CCc4cc(OCc5ocnc5C)ccc4C3)cc(NC3CCC3)n2)CC1 [Compound 556, 2-(4-acetylpiperazin-1-yl)-6-(cyclobutylamino)-N-[(2S)-2-hydroxy-3-{6-[(4-methyl-1,3-oxazol-5-yl)methoxy]-1,2,3,4-tetrahydroisoquinolin-2-yl}propyl]pyridine-4-carboxamide] |  | B* (an IC50 ratio greater than or equal to 3 fold but lower than 10 fold between the IC50 in the HAP1 MTAP-intact cell line and the HAP1 MTAP-deleted cell line) | A (a Ki ratio greater than or equal to 10 fold between the Ki in the presence of SAM and the Ki in the presence of MTA)
50 to 500 nM | 500 to 5000 nM | 50 to 500 nM | < 1000 nM | < 1000 nM |  | CCC(=O)N1CCN(c2cc(C(=O)NC[C@H](O)CN3CCc4cc(OCc5ocnc5C)ccc4C3)cc(NC3CCC3)n2)CC1 [Compound 389, 2-(cyclobutylamino)-N-[(2S)-2-hydroxy-3-{6-[(4-methyl-1,3-oxazol-5-yl)methoxy]-1,2,3,4-tetrahydroisoquinolin-2-yl}propyl]-6-(4-propanoylpiperazin-1-yl)pyridine-4-carboxamide] | A (a Ki ratio greater than or equal to 10 fold between the Ki in the presence of SAM and the Ki in the presence of MTA) | B* (an IC50 ratio greater than or equal to 3 fold but lower than 10 fold between the IC50 in the HAP1 MTAP-intact cell line and the HAP1 MTAP-deleted cell line) | 
50 to 500 nM |  | 50 to 500 nM | ≥ 10000 nM | 1000 to 10000 nM | 500 to 5000 nM | CC(=O)N1CCC(Nc2cc(C(=O)NC[C@H](O)CN3CCc4c(ccc(OCc5ocnc5C)c4C)C3)cc(N3CCN(C(C)=O)CC3)n2)CC1 [Compound 590, 2-(4-acetylpiperazin-1-yl)-6-[(1-acetylpiperidin-4-yl)amino]-N-[(2S)-2-hydroxy-3-{5-methyl-6-[(4-methyl-1,3-oxazol-5-yl)methoxy]-1,2,3,4-tetrahydroisoquinolin-2-yl}propyl]pyridine-4-carboxamide] |  | C* (an IC50 ratio of less than 3 fold between the IC50 in the HAP1 MTAP-intact cell line and the HAP1 MTAP-deleted cell line) | A (a Ki ratio greater than or equal to 10 fold between the Ki in the presence of SAM and the Ki in the presence of MTA)
50 to 500 nM | ≥ 5000 nM | 50 to 500 nM | ≥ 10000 nM | 1000 to 10000 nM |  | Cc1ncoc1COc1ccc2c(c1C)CCN(C[C@@H](O)CNC(=O)c1cc(NC3COC3)nc(N3CCN(C(=O)C(C)C)CC3)n1)C2 [Compound 421, N-[(2S)-2-hydroxy-3-{5-methyl-6-[(4-methyl-1,3-oxazol-5-yl)methoxy]-1,2,3,4-tetrahydroisoquinolin-2-yl}propyl]-2-[4-(2-methylpropanoyl)piperazin-1-yl]-6-[(oxetan-3-yl)amino]pyrimidine-4-carboxamide] | A (a Ki ratio greater than or equal to 10 fold between the Ki in the presence of SAM and the Ki in the presence of MTA) | B* (an IC50 ratio greater than or equal to 3 fold but lower than 10 fold between the IC50 in the HAP1 MTAP-intact cell line and the HAP1 MTAP-deleted cell line) | 
50 to 500 nM |  | 50 to 500 nM | < 1000 nM | < 1000 nM | 500 to 5000 nM | Cc1ncoc1COc1ccc2c(c1)CCN(C[C@@H](O)CNC(=O)c1cc(NC3CCC3)nc(N3CCN(C(=O)C(C)C)CC3)c1)C2 [Compound 463, 2-(cyclobutylamino)-N-[(2S)-2-hydroxy-3-{6-[(4-methyl-1,3-oxazol-5-yl)methoxy]-1,2,3,4-tetrahydroisoquinolin-2-yl}propyl]-6-[4-(2-methylpropanoyl)piperazin-1-yl]pyridine-4-carboxamide] |  | B* (an IC50 ratio greater than or equal to 3 fold but lower than 10 fold between the IC50 in the HAP1 MTAP-intact cell line and the HAP1 MTAP-deleted cell line) | A (a Ki ratio greater than or equal to 10 fold between the Ki in the presence of SAM and the Ki in the presence of MTA)

SMILES | IC50 (PRMT5 [1]) | IC50 (PRMT5 [2]; read-out: No Co-factor IC50) | IC50 (PRMT5 [3]) | IC50 (HAP1 MTAP-intact) | IC50 (HAP1 MTAP-deleted) | IC50 (PRMT5 [2]) | SAM/MTA Ratio (PRMT5 [3]; [4]) | MTAP Intact/Deleted Ratio (HAP1 MTAP-deleted) | SAM/MTA Ratio (PRMT5 [3]; [5])
CC(=O)N1[C@@H]2CC[C@H]1C[C@H](Nc1cc(C(=O)NC[C@H](O)CN3CCc4cc(OCc5ocnc5C)ccc4C3)ccn1)C2 [Compound 645, 2-(((1R,3r,5S)-8-acetyl-8-azabicyclo[3.2.1]octan-3-yl)amino)-N—((S)-2-hydroxy-3-(6-((4-methyloxazol-5-yl)methoxy)-3,4-dihydroisoquinolin-2(1H)-yl)propyl)isonicotinamide] | 50 to 500 nM | 500 to 5000 nM | 50 to 500 nM | ≥ 10000 nM | < 1000 nM |  | A (a Ki ratio greater than or equal to 10 fold between the Ki in the presence of SAM and the Ki in the presence of MTA) | A* (an IC50 ratio greater than or equal to 10 fold between the IC50 in the HAP1 MTAP-intact cell line and the HAP1 MTAP-deleted cell line) | 
